For the experiment, the system named is erythropoiesis (nascent erythrocytes). In words: Cobalt chloride-induced erythropoiesis in eGFP mice (FACS of erythrocyte eGFP fluorescence). To be noted: for effect on erythropoiesis (right-shift of eGFP fluorescence curves): subcutaneous injection, six mice. It is filed as in vivo, hemizygous BALB/c mice. As for the experimental part: Mice were anesthetized with isofluorane and a minute incision was made into the lateral tail vein. Approximately 1 μl of tail vein blood was diluted into 0.5 ml of sterile saline containing 3 mM EDTA and stored at 4° C. Fluorescence activated cell sorting (FACS) was performed within 6 hours of blood collection on a FACSAria (BD Biosciences, San Jose, Calif.) flow cytometer. A 488 nm laser was used to excite the eGFP and a 530/30 nm band-pass filter and a 502 nm long-pass filter were used to monitor emissions. Forward and side scatter were used to gate for single erythrocytes, with approximately one hundred thousand events measured per blood sample. Median Fluorescence Intensity (MFI) for each erythrocyte population was analyzed using FlowJo 7.2.5 software (Tree Star, Inc. Ashland, Oreg.).
Tail vein blood (1 μl) was collected daily from one-year old hemizygous BALB/c mice starting on the day before cobalt chloride treatment (Day −1) and continuing through three days after treatment (Day 3) as described in Example 1, On Day 0, six one-year old BALB/c (hemizygous) mice were subcutaneously injected with 0.1 mL saline containing 4 μmols of cobalt chloride. FACS was performed immediately following the blood draw, and data were analyzed with FlowJo software as described in Example 1.

Take `[Cl][Co][Cl]` [cobalt chloride]: the “effect on erythropoiesis (right-shift of eGFP fluorescence curves)” value was “stimulates erythropoiesis in vivo”. Moreover, the “increase in the number of nascent erythrocytes” value (4 μmols cobalt chloride s.c. on Day 0, Day 2 vs Day −1, statistically significant) is 10 fold. Further, the “effect on erythropoiesis (right-shift of eGFP fluorescence curves)” value (listed as Cobalt chloride) is “stimulated erythropoiesis in each of the six mice tested”.

Values taken from patent US20120129212A1, “METHOD OF MONITORING ERYTHROPOIESIS” (VERTEX PHARMACEUTICALS INCORPORATED, priority 2009, published 2012).
